What was measured:
[1] = system: BaF3-FL KIT D816V or BaF3-FL KIT V560G/D816V cell line; assay: Cell-based assays of c-Kit mutant kinase activity (cell proliferation, ATPlite); details: at least one of the c-kit cell assays of Example 7
Method in brief: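 BaF3 cells dependent on transfected full-length human KIT D816V or V560G/D816V (pCI-Neo, CMV promoter) were seeded at 1×10^4 cells/well and exposed to 8-point 1:3 dilutions from 10 μM top (0.2% DMSO) for three days at 37° C. ATPlite luminescence gave cell number; IC50 from concentration-response.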

c-kit mutant D816V = c-kit mutant D816V (Homo sapiens (Human), UniProt P10721, D816V/DEL694-753); assay: c-Kit mutant D816V biochemical assay (AlphaScreen kinase activity)
Chain of c-kit mutant D816V (P10721 other isoform, or with tags, fused parts or gaps D816V/del 694-753): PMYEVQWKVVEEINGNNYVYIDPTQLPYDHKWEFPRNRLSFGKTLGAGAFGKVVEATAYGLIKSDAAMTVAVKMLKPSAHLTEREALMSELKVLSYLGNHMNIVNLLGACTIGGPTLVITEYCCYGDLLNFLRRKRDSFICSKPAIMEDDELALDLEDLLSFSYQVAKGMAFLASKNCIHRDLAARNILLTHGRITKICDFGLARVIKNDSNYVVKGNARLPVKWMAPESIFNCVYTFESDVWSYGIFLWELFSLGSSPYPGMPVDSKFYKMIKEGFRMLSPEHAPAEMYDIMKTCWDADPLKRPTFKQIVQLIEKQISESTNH
Method in brief: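 AlphaScreen with streptavidin donor and PY30 acceptor beads read phosphotyrosine on biotin-(E4Y)10 substrate (30 nM). Enzyme: E. coli-expressed N-His c-Kit D816V, residues 551-934 lacking kinase insert 694-753. Reaction 30 min at room temperature, 10 μM ATP, 5% DMSO; IC50 fitted over 8 three-fold dilutions.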

SMILES | IC50 [1] | IC50 (c-kit mutant D816V)
CC(=O)Nc1cccc(-c2cc3c(N4CCC(c5nc(C)c(-c6ccccc6)[nH]5)CC4)ncnc3[nH]2)c1 [P-3071, N-[3-[4-[4-(4-methyl-5-phenyl-1H-imidazol-2-yl)-1-piperidyl]-7H-pyrrolo[2,3-d]pyrimidin-6-yl]phenyl]acetamide] | < 10 µM | 0.0001 to 1 µM
COc1ccc(-c2cc3c(N4CCC(c5nc(C)c(-c6ccccc6)[nH]5)CC4)ncnc3[nH]2)cn1 [P-3072, 6-(6-methoxy-3-pyridyl)-4-[4-(4-methyl-5-phenyl-1H-imidazol-2-yl)-1-piperidyl]-7H-pyrrolo[2,3-d]pyrimidine] | < 10 µM | 0.0001 to 1 µM
Cc1nn(C)cc1-c1cc2c(N3CCC(c4nc(C)c(-c5ccccc5)[nH]4)CC3)ncnc2[nH]1 [P-3073, 6-(1,3-dimethylpyrazol-4-yl)-4-[4-(4-methyl-5-phenyl-1H-imidazol-2-yl)-1-piperidyl]-7H-pyrrolo[2,3-d]pyrimidine] | < 10 µM | 0.0001 to 1 µM
Cc1ccc(-c2cc3c(N4CCC(c5nc(C)c(-c6ccccc6)[nH]5)CC4)ncnc3[nH]2)cn1 [P-3074, 4-[4-(4-methyl-5-phenyl-1H-imidazol-2-yl)-1-piperidyl]-6-(6-methyl-3-pyridyl)-7H-pyrrolo[2,3-d]pyrimidine] | < 10 µM | 0.0001 to 1 µM
CCOc1cc(-c2cc3c(N4CCC(c5nc(C)c(-c6ccccc6)[nH]5)CC4)ncnc3[nH]2)ccn1 [P-3075, 6-(2-ethoxy-4-pyridyl)-4-[4-(4-methyl-5-phenyl-1H-imidazol-2-yl)-1-piperidyl]-7H-pyrrolo[2,3-d]pyrimidine] | < 10 µM | 0.0001 to 1 µM
Cc1nc(C2CCN(c3ncnc4[nH]c(-c5ccnc(N6CCOCC6)c5)cc34)CC2)[nH]c1-c1ccccc1 [P-3076, 4-[4-[4-[4-(4-methyl-5-phenyl-1H-imidazol-2-yl)-1-piperidyl]-7H-pyrrolo[2,3-d]pyrimidin-6-yl]-2-pyridyl]morpholine] | < 10 µM | 0.0001 to 1 µM
Cc1nc(C2CCN(c3ncnc4[nH]c(-c5ccnc(N6CCC(C)CC6)c5)cc34)CC2)[nH]c1-c1ccccc1 [P-3077, 4-[4-(4-methyl-5-phenyl-1H-imidazol-2-yl)-1-piperidyl]-6-[2-(4-methyl-1-piperidyl)-4-pyridyl]-7H-pyrrolo[2,3-d]pyrimidine] | < 10 µM | 0.0001 to 1 µM
Cc1nc(C2CCN(c3ncnc4[nH]c(-c5ccnc(OC(C)C)c5)cc34)CC2)[nH]c1-c1ccccc1 [P-3078, 6-(2-isopropoxy-4-pyridyl)-4-[4-(4-methyl-5-phenyl-1H-imidazol-2-yl)-1-piperidyl]-7H-pyrrolo[2,3-d]pyrimidine] | < 10 µM | 0.0001 to 1 µM
Cc1nc(C2CCN(c3ncnc4[nH]c(-c5ccnc(N6CCCC6)c5)cc34)CC2)[nH]c1-c1ccccc1 [P-3079, 4-[4-(4-methyl-5-phenyl-1H-imidazol-2-yl)-1-piperidyl]-6-(2-pyrrolidin-1-yl-4-pyridyl)-7H-pyrrolo[2,3-d]pyrimidine] | < 10 µM | 0.0001 to 1 µM
Cc1nc(C2CCN(c3ncnc4[nH]c(-c5cccc(OC(F)(F)F)c5)cc34)CC2)[nH]c1-c1ccccc1 [P-3080, 4-[4-(4-methyl-5-phenyl-1H-imidazol-2-yl)-1-piperidyl]-6-[3-(trifluoromethoxy)phenyl]-7H-pyrrolo[2,3-d]pyrimidine] | < 10 µM | 0.0001 to 1 µM
Cc1nc(C2CCN(c3ncnc4[nH]c(-c5cccc(F)c5)cc34)CC2)[nH]c1-c1ccccc1 [P-3081, 6-(3-fluorophenyl)-4-[4-(4-methyl-5-phenyl-1H-imidazol-2-yl)-1-piperidyl]-7H-pyrrolo[2,3-d]pyrimidine] | < 10 µM | 0.0001 to 1 µM
Cc1nc(C2CCN(c3ncnc4[nH]c(-c5cccc(NS(C)(=O)=O)c5)cc34)CC2)[nH]c1-c1ccccc1 [P-3083, N-[3-[4-[4-(4-methyl-5-phenyl-1H-imidazol-2-yl)-1-piperidyl]-7H-pyrrolo[2,3-d]pyrimidin-6-yl]phenyl]methane sulfonamide] | < 10 µM | 0.0001 to 1 µM
Cc1nc(C2CCN(c3ncnc4[nH]c(-c5ccc(F)cc5)cc34)CC2)[nH]c1-c1ccc2c(c1)OCCO2 [P-3084, 4-[4-[5-(2,3-dihydro-1,4-benzodioxin-6-yl)-4-methyl-1H-imidazol-2-yl]-1-piperidyl]-6-(4-fluorophenyl)-7H-pyrrolo[2,3-d]pyrimidine] | < 10 µM | 0.0001 to 1 µM
Cc1nc(C2CCN(c3ncnc4[nH]c(-c5ccc(F)cc5)cc34)CC2)[nH]c1-c1ccc(OC(F)(F)F)cc1 [P-3085, 6-(4-fluorophenyl)-4-[4-[4-methyl-5-[4-(trifluoromethoxy)phenyl]-1H-imidazol-2-yl]-1-piperidyl]-7H-pyrrolo[2,3-d]pyrimidine] | < 10 µM | 0.0001 to 1 µM
Cc1nc(C2CCN(c3ncnc4[nH]c(-c5ccc(C#N)cc5)cc34)CC2)[nH]c1-c1ccc(OC(F)(F)F)cc1 [P-3086, 4-[4-[4-[4-methyl-5-[4-(trifluoromethoxy)phenyl]-1H-imidazol-2-yl]-1-piperidyl]-7H-pyrrolo[2,3-d]pyrimidin-6-yl]benzonitrile] | < 10 µM | 0.0001 to 1 µM
COc1cc(-c2cc3c(N4CCC(c5nc(C)c(-c6ccc(OC(F)(F)F)cc6)[nH]5)CC4)ncnc3[nH]2)ccn1 [P-3087, 6-(2-methoxy-4-pyridyl)-4-[4-[4-methyl-5-[4-(trifluoromethoxy)phenyl]-1H-imidazol-2-yl]-1-piperidyl]-7H-pyrrolo[2,3-d]pyrimidine] | < 10 µM | 0.0001 to 1 µM
COc1cc(-c2cc3c(N4CCC(c5nc(C)c(-c6ccc(C)cc6)[nH]5)CC4)ncnc3[nH]2)ccn1 [P-3088, 6-(2-methoxy-4-pyridyl)-4-[4-[4-methyl-5-(p-tolyl)-1H-imidazol-2-yl]-1-piperidyl]-7H-pyrrolo[2,3-d]pyrimidine] | < 10 µM | 0.0001 to 1 µM
COc1ccc(-c2[nH]c(C3(C)CCN(c4ncnc5[nH]c(-c6ccc(C#N)nc6)cc45)CC3)nc2C)cc1C [P-3250, 5-[4-[4-[5-(4-methoxy-3-methyl-phenyl)-4-methyl-1H-imidazol-2-yl]-4-methyl-1-piperidyl]-7H-pyrrolo[2,3-d]pyrimidin-6-yl]pyridine-2-carbonitrile] | < 10 µM | 0.0001 to 1 µM
CCOc1ccc(-c2[nH]c(C3(C)CCN(c4ncnc5[nH]c(-c6ccc(C#N)nc6)cc45)CC3)nc2C)cc1 [P-3251, 5-[4-[4-[5-(4-ethoxyphenyl)-4-methyl-1H-imidazol-2-yl]-4-methyl-1-piperidyl]-7H-pyrrolo[2,3-d]pyrimidin-6-yl]pyridine-2-carbonitrile] | < 10 µM | 0.0001 to 1 µM
Cc1nc(C2(C)CCN(c3ncnc4[nH]c(-c5ccc(NS(C)(=O)=O)cc5)cc34)CC2)[nH]c1-c1ccc(C(F)F)cc1 [P-3252, N-[4-[4-[4-[5-[4-(difluoromethyl)phenyl]-4-methyl-1H-imidazol-2-yl]-4-methyl-1-piperidyl]-7H-pyrrolo[2,3-d]pyrimidin-6-yl]phenyl]methanesulfonamide] | < 10 µM | 0.0001 to 1 µM
Cc1nc(C2(C)CCN(c3ncnc4[nH]c(-c5ccc(C(N)=O)cc5)cc34)CC2)[nH]c1-c1ccc(OC(F)F)cc1 [P-3253, 4-[4-[4-[5-[4-(difluoromethoxy)phenyl]-4-methyl-1H-imidazol-2-yl]-4-methyl-1-piperidyl]-7H-pyrrolo[2,3-d]pyrimidin-6-yl]benzamide] | < 10 µM | 0.0001 to 1 µM
Cc1nc(C2(C)CCN(c3ncnc4[nH]c(-c5ccc(NS(C)(=O)=O)cc5)cc34)CC2)[nH]c1-c1ccc(OC(F)F)cc1 [P-3254, N-[4-[4-[4-[5-[4-(difluoromethoxy)phenyl]-4-methyl-1H-imidazol-2-yl]-4-methyl-1-piperidyl]-7H-pyrrolo[2,3-d]pyrimidin-6-yl]phenyl]methanesulfonamide] | < 10 µM | 0.0001 to 1 µM
Cc1nc(C2(C)CCN(c3ncnc4[nH]c(-c5ccc(C#N)nc5)cc34)CC2)[nH]c1-c1cccc(OC(F)F)c1 [P-3255, 5-[4-[4-[5-[3-(difluoromethoxy)phenyl]-4-methyl-1H-imidazol-2-yl]-4-methyl-1-piperidyl]-7H-pyrrolo[2,3-d]pyrimidin-6-yl]pyridine-2-carbonitrile] | < 10 µM | 0.0001 to 1 µM
COc1cccc(-c2[nH]c(C3(C)CCN(c4ncnc5[nH]c(-c6ccc(C#N)nc6)cc45)CC3)nc2C)c1 [P-3256, 5-[4-[4-[5-(3-methoxyphenyl)-4-methyl-1H-imidazol-2-yl]-4-methyl-1-piperidyl]-7H-pyrrolo[2,3-d]pyrimidin-6-yl]pyridine-2-carbonitrile] | < 10 µM | 0.0001 to 1 µM
